From patent US20250332151A1, “METHODS OF TREATMENT FOR CYSTIC FIBROSIS” (Vertex Pharmaceuticals Incorporated, priority 2022, published 2025) come the findings set out here.

pEC50: −log10 of the molar value.

A short description of data set [1]: First-in-human (FIH) clinical study of safety, tolerability and PK in healthy subjects. The format is in vivo. The conditions noted are these: single doses 3 mg to 1500 mg (Part A), total daily doses 10 mg to 300 mg for ten days (Part B), Part C, suspension, all cohorts. As for the experimental part: In a first-in-human (FIH) clinical study of Compound I, the safety, tolerability, and pharmacokinetics (PK) of Compound I in healthy subjects was evaluated. Assessments of the relative bioavailability (BA) of Suspension 2 of Compound I compared to Suspension 1 of Compound I, food effect, and drug drug interactions (DDIs) between Compound I and itraconazole and midazolam were conducted.
This first-in-human (FIH) study of Compound I included three parts (Parts A, B, and C).
Approximately 154 healthy adult subjects were planned to be enrolled in planned cohorts. Approximately 76 subjects were planned to be enrolled in Part A (excluding optional Part A Cohorts), approximately 48 subjects in Part B (excluding optional Part B Cohorts), and approximately 30 subjects in Part C. There was no pre-specified ratio of males to females, but reasonable effort was made to enroll females of non-childbearing potential in all dosing cohorts.
Six dose escalation cohorts were planned for Part A, and five dose escalation cohorts were planned for Part B. Additional cohorts (A7 and A8) in Part A were enrolled based on data from previous cohorts. […]
Food effect was evaluated in an open label, single sequence Cohort A9 to evaluate the effect of food on the PK of Compound I based on emerging PK data during dose escalation. […]

Data set [2] deals with T1, CFTR in F508del/MF-HBE cells (Homo sapiens, UniProt P13569, DEL508-508).
T1 construct: human bronchial epithelial (HBE) cells derived from CF subjects; endogenous in cells; host or cells: primary human bronchial epithelial cells from CF subjects (F508del/MF-HBE)
Description: Ussing chamber assay of CFTR-mediated short-circuit currents (potentiator activity). Conditions: 18-24 hours at 37° C. with 10 μM Compound VII, 20% human serum, CFTR-mediated ISC. It is filed as cell-based. As for the experimental part:
Ussing chamber experiments were performed using human bronchial epithelial (HBE) cells derived from CF subjects heterozygous for F508del and a minimal function CFTR mutation (F508del/MF-HBE) and cultured as previously described (Neuberger T, Burton B, Clark H, Van Goor F Methods Mol Biol 2011:741:39-54). After four days the apical media was removed, and the cells were grown at an air liquid interface for >14 days prior to use.
To isolate the CFTR-mediated short-circuit (ISC) current, F508del/MF-HBE grown on Costar® Snapwell™ cell culture inserts were mounted in an Ussing chamber and the transepithelial ISC was measured under voltage-clamp recording conditions (Vhold=0 mV) at 37° C. The basolateral solution contained (in mM) 145 NaCl, 0.83 K2HPO4, 3.3 KH2PO4, 1.2 MgCl2, 1.2 CaCl2), 10 Glucose, 10 HEPES (pH adjusted to 7.4 with NaOH) and the apical solution contained (in mM) 145 NaGluconate, 1.2 MgCl2, 1.2 CaCl2), 10 glucose, 10 HEPES (pH adjusted to 7.4 with NaOH) and 30 μM amiloride to block the epithelial sodium channel. […] The CFTR-mediated ISC (uA/cm2) for each condition was determined from the peak forskolin response to the steady-state current following inhibition.
The activity of the CFTR potentiator compounds on the CFTR-mediated ISC was determined in Ussing chamber studies as described above. […]

T1 sequence (P13569 with tags, fused parts or gaps DEL508-508): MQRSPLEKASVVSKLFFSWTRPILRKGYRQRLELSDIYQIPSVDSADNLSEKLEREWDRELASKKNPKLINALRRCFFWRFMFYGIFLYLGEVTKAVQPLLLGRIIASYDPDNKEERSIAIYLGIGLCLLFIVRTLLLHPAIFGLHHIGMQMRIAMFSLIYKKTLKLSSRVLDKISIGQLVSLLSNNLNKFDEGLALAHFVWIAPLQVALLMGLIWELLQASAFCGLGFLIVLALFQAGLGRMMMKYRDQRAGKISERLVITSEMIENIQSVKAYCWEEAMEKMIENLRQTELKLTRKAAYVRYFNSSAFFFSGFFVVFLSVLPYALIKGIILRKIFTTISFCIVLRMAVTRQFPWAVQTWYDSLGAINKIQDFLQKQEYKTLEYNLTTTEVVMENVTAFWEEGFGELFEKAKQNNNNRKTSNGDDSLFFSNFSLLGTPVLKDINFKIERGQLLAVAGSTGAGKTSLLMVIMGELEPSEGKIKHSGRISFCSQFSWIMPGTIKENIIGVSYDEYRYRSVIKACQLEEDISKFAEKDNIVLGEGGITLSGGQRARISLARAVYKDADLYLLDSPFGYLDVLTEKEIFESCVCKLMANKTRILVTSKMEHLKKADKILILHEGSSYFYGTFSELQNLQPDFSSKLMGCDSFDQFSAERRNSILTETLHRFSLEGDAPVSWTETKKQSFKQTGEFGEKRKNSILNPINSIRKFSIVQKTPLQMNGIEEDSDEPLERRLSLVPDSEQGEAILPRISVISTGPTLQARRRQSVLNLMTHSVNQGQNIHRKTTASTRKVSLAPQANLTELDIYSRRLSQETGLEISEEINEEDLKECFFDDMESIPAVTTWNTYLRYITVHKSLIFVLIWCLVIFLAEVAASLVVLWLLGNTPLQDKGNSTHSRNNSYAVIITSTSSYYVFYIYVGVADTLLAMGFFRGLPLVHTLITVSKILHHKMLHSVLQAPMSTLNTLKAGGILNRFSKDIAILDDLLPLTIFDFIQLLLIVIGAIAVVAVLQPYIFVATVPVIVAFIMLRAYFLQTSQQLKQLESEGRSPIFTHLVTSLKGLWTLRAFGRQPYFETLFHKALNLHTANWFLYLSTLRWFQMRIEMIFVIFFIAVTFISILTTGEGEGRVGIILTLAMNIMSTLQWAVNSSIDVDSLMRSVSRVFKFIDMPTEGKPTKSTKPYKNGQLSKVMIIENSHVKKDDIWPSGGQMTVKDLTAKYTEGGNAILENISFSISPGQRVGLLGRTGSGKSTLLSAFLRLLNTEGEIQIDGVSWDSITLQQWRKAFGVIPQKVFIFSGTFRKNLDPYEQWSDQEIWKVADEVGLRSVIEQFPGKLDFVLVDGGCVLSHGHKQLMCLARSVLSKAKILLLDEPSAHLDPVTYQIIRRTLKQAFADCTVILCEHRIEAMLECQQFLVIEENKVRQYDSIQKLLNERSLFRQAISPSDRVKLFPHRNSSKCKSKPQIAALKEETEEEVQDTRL

As usually defined, the pEC50 is the negative decadic logarithm of the EC50, by convention in mol/L. As to `CC1(C)CCCCC[C@](O)(C(F)(F)F)C2=NN=C(O2)c2nc(c(C(F)(F)F)cc2N)N1` [Compound I, (6R)-17-amino-12,12-dimethyl-6,15-bis(trifluoromethyl)-19-oxa-3,4,13,18-tetrazatricyclo[12.3.1.12,5]nonadeca-1 (18),2,4,14,16-pentaen-6-ol], the safety and tolerability result in data set [1] was “generally safe and well-tolerated”. For the same compound, the pEC50 in data set [2] is > 6.30.
